Patent US10246429B2, “Vinyl fluoride cyclopropyl fused thiazin-2-amine compounds as beta-secretase inhibitors and methods of use” (AMGEN INC., priority 2015, dated 2019)

Assays:
Cathepsin D (CatD) = Cathepsin D (CatD) (Homo sapiens (Human), UniProt P07339); assay: CatD assay; assay type: biochemical; settings: read-out: IC50 IP (μM) CatD
BACE2 = BACE2 (Homo sapiens (Human), UniProt Q9Y5Z0); assay: In vitro enzymatic BACE2 FRET assay; assay type: biochemical; settings: read-out: IC50 IP (μM) BACE2 Enzyme
BACE2, sequence (Q9Y5Z0 63-518): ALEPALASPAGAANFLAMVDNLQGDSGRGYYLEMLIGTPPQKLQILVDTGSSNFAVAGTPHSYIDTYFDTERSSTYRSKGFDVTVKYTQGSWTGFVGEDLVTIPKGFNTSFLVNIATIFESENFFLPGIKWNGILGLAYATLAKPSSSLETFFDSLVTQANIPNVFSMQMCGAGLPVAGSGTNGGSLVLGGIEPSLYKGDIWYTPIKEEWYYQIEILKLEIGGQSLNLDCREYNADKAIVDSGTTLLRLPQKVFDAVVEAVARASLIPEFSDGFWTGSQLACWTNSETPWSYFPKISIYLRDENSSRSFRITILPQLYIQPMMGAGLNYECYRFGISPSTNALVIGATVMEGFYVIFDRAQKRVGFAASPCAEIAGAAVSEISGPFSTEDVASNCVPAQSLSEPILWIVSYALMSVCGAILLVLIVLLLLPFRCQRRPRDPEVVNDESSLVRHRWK
Excerpt: In Vitro Enzymatic BACE1 and BACE2 FRET (Fluorescence Resonance Energy Transfer) Assays (Enzyme Assay Data in Table 1)

Cathepsin D (CatD), sequence (P07339 65-412, species assumed): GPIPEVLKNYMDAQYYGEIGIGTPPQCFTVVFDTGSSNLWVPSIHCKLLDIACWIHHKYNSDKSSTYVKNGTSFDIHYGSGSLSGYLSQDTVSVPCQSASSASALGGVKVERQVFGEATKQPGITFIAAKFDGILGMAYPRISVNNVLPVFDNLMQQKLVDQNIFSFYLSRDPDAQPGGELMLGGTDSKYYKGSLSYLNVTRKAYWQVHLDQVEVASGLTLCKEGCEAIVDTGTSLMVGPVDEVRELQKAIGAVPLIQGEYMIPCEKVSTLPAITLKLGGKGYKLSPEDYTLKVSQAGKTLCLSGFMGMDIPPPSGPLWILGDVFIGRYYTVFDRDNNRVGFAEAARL

SMILES	IC50 (Cathepsin D (CatD)) [µM]	IC50 (BACE2) [µM]
COC[C@]12C[C@H]1[C@@](C)(c1cc(/C=C(\F)c3cnc(OC[C@H](C)OC)cn3)ccc1F)N=C(N)S2 [Example 265]	1320	3.86
C[C@]1(c2cc(/C=C(\F)c3ccc(C#N)cn3)ccc2F)N=C(N)S[C@@]2(C(=O)NC3CCOCC3)C[C@H]21 [Example 128, (1S,5S,6S)-3-amino-5-(5-((Z)-2-(5-cyanopyridin-2-yl)-2-fluorovinyl)-2-fluorophenyl)-5-methyl-N-(tetrahydro-2H-pyran-4-yl)-2-thia-4-azabicyclo[4.1.0]hept-3-ene-1-carboxamide]	144	0.0892
C[C@]1(c2cc(/C=C(\F)c3ccc(C#N)cn3)ccc2F)N=C(N)S[C@@]2(C(=O)N3CCC(C(F)(F)F)CC3)C[C@H]21 [Example 139, 6-((Z)-2-(3-((1S,5S,6S)-3-amino-5-methyl-1-(4-(trifluoromethyl)piperidine-1-carbonyl)-2-thia-4-azabicyclo[4.1.0]hept-3-en-5-yl)-4-fluorophenyl)-1-fluorovinyl)nicotinonitrile]	81.5	0.00257
CN(C)C(=O)[C@]12C[C@H]1[C@@](C)(c1cc(/C=C(\F)c3ccc(C#N)nn3)ccc1F)N=C(N)S2 [Example 174, (1S,5S,6S)-3-amino-5-(5-((Z)-2-(6-cyanopyridazin-3-yl)-2-fluorovinyl)-2-fluorophenyl)-N,N,5-trimethyl-2-thia-4-azabicyclo[4.1.0]hept-3-ene-1-carboxamide]	280	0.406
CN(C)C(=O)[C@]12C[C@H]1[C@@](C)(c1cc(/C=C(\F)c3cnc(OCC(F)(F)F)cn3)cnc1F)N=C(N)S2 [Example 282, (1S,5S,6S)-3-amino-5-(2-fluoro-5-((Z)-2-fluoro-2-(5-(2,2,2-trifluoroethoxy)pyrazin-2-yl)vinyl)pyridin-3-yl)-N,N,5-trimethyl-2-thia-4-azabicyclo[4.1.0]hept-3-ene-1-carboxamide]	287	0.125
COC[C@]12C[C@H]1[C@@](C)(c1cc(/C=C(\F)c3cnc(Cl)cn3)ccc1F)N=C(N)S2 [Example 261, (1S,5S,6S)-5-(5-((Z)-2-(5-chloropyrazin-2-yl)-2-fluorovinyl)-2-fluorophenyl)-1-(methoxymethyl)-5-methyl-2-thia-4-azabicyclo[4.1.0]hept-3-en-3-amine]	357	0.08
COC(=O)[C@@]12SC(N)=N[C@](C)(c3cc(/C=C(\F)c4ccc(C#N)cn4)ccc3F)[C@@H]1C2(F)F [Example 256, (1S,5S,6R)-methyl 3-amino-5-(5-((Z)-2-(5-cyanopyridin-2-yl)-2-fluorovinyl)-2-fluorophenyl)-7,7-difluoro-5-methyl-2-thia-4-azabicyclo[4.1.0]hept-3-ene-1-carboxylate]	760	0.252
C[C@]1(c2cc(/C=C(\F)c3ccc(C#N)cn3)ccc2F)N=C(N)S[C@@]2(C(=O)N3CCCC(c4ccccc4)C3)C[C@H]21 (stereo partly drawn) [Example 140, 6-((Z)-2-(3-((1S,5S,6S)-3-amino-5-methyl-1-(3-phenylpiperidine-1-carbonyl)-2-thia-4-azabicyclo[4.1.0]hept-3-en-5-yl)-4-fluorophenyl)-1-fluorovinyl)nicotinonitrile]	12.8	0.0131
C[C@]1(c2cc(/C=C(\F)c3ccc(C#N)cn3)ccc2F)N=C(N)S[C@@]2(C(=O)N3CCNC(=O)C3)C[C@H]21 [Example 144, 6-((Z)-2-(3-((1S,5S,6S)-3-amino-5-methyl-1-(3-oxopiperazine-1-carbonyl)-2-thia-4-azabicyclo[4.1.0]hept-3-en-5-yl)-4-fluorophenyl)-1-fluorovinyl)nicotinonitrile]	400	0.0282
CN(C)[C@@H]1CCN(C(=O)[C@]23C[C@H]2[C@@](C)(c2cc(/C=C(\F)c4ccc(C#N)cn4)ccc2F)N=C(N)S3)C1 [Example 134, 6-((Z)-2-(3-((1S,5S,6S)-3-amino-1-((R)-3-(dimethylamino)pyrrolidine-1-carbonyl)-5-methyl-2-thia-4-azabicyclo[4.1.0]hept-3-en-5-yl)-4-fluorophenyl)-1-fluorovinyl)nicotinonitrile]	400	0.8
CN(C)C(=O)[C@]12C[C@H]1[C@@](C)(c1cc(/C=C(\F)c3cnc(Br)cn3)ccc1F)N=C(N)S2 [Example 157, (1S,5S,6S)-3-amino-5-(5-((Z)-2-(5-bromopyrazin-2-yl)-2-fluorovinyl)-2-fluorophenyl)-N,N,5-trimethyl-2-thia-4-azabicyclo[4.1.0]hept-3-ene-1-carboxamide]	39.1	0.0262
CC(=O)COc1cnc(/C(F)=C/c2cnc(F)c([C@@]3(C)N=C(N)S[C@@]4(C(=O)N(C)C)C[C@H]43)c2)cn1 [Example 288, (1S,5S,6S)-3-amino-5-(2-fluoro-5-((Z)-2-fluoro-2-(5-(2-oxopropoxy)pyrazin-2-yl)vinyl)pyridin-3-yl)-N,N,5-trimethyl-2-thia-4-azabicyclo[4.1.0]hept-3-ene-1-carboxamide]	175	0.294
CN(C)C(=O)[C@]12C[C@H]1[C@@](C)(c1cc(/C=C(\F)c3ccc(C#N)cn3)cnc1F)N=C(N)S2 [Example 180, (1S,5S,6S)-3-amino-5-(5-((Z)-2-(5-cyanopyridin-2-yl)-2-fluorovinyl)-2-fluoropyridin-3-yl)-N,N,5-trimethyl-2-thia-4-azabicyclo[4.1.0]hept-3-ene-1-carboxamide]	> 400	0.023
CNC(=O)[C@]12C[C@H]1[C@@](C)(c1cc(/C=C(\F)c3ccc(C#CC(C)(C)C)cn3)ccc1F)N=C(N)S2 [Example 359, (1S,5S,6S)-3-amino-5-(5-((Z)-2-(5-(3,3-dimethylbut-1-yn-1-yl)pyridin-2-yl)-2-fluorovinyl)-2-fluorophenyl)-N,5-dimethyl-2-thia-4-azabicyclo[4.1.0]hept-3-ene-1-carboxamide]	26	0.794
C[C@]1(c2cc(/C=C(\F)c3cnc(Cl)cn3)ccc2F)N=C(N)S[C@]2(CO)[C@H]1C2(F)F [Example 252, ((1S,5S,6R)-3-amino-5-(5-((Z)-2-(5-chloropyrazin-2-yl)-2-fluorovinyl)-2-fluorophenyl)-7,7-difluoro-5-methyl-2-thia-4-azabicyclo[4.1.0]hept-3-en-1-yl)methanol]	158	0.151
CC1CCCN1C(=O)[C@]12C[C@H]1[C@@](C)(c1cc(/C=C(\F)c3ccc(C#N)cn3)ccc1F)N=C(N)S2 (stereo partly drawn) [Example 138, 6-((Z)-2-(3-((1S,5S,6S)-3-amino-5-methyl-1-(2-methylpyrrolidine-1-carbonyl)-2-thia-4-azabicyclo[4.1.0]hept-3-en-5-yl)-4-fluorophenyl)-1-fluorovinyl)nicotinonitrile]	70.9	0.0924
CN(C)C(=O)[C@]12C[C@H]1[C@@](C)(c1cc(/C=C(\F)c3ncc(C#N)cn3)ccc1F)N=C(N)S2 [Example 170, (1S,5S,6S)-3-amino-5-(5-((Z)-2-(5-cyanopyrimidin-2-yl)-2-fluorovinyl)-2-fluorophenyl)-N,N,5-trimethyl-2-thia-4-azabicyclo[4.1.0]hept-3-ene-1-carboxamide]	1700	0.00305
COC[C@]12C[C@H]1[C@@](C)(c1cc(/C=C(\F)c3cnc(OC(C)C(F)(F)F)cn3)ccc1F)N=C(N)S2 (some centres unmarked) [Example 277]	207	2.42
CN(C)C(=O)[C@]12C[C@H]1[C@@](C)(c1cc(/C=C(\F)c3cnc(C#N)cn3)ccc1F)N=C(N)S2 [Example 169, (1S,5S,6S)-3-amino-5-(5-((Z)-2-(5-cyanopyrazin-2-yl)-2-fluorovinyl)-2-fluorophenyl)-N,N,5-trimethyl-2-thia-4-azabicyclo[4.1.0]hept-3-ene-1-carboxamide]	95.5	0.0174
CC1CC(C)CN(C(=O)[C@]23C[C@H]2[C@@](C)(c2cc(/C=C(\F)c4ccc(C#N)cn4)ccc2F)N=C(N)S3)C1 (stereo partly drawn) [Example 137, 6-((Z)-2-(3-((1S,5S,6S)-3-amino-1-(3,5-dimethylpiperidine-1-carbonyl)-5-methyl-2-thia-4-azabicyclo[4.1.0]hept-3-en-5-yl)-4-fluorophenyl)-1-fluorovinyl)nicotinonitrile]	43.2	0.21
CNC(=O)[C@]12C[C@H]1[C@@](C)(c1cc(/C=C(\F)c3cnc(OCC(F)(F)C(F)F)cn3)ccc1F)N=C(N)S2 [Example 161, (1S,5S,6S)-3-amino-5-(2-fluoro-5-((Z)-2-fluoro-2-(5-(2,2,3,3-tetrafluoropropoxy)pyrazin-2-yl)vinyl)phenyl)-N,5-dimethyl-2-thia-4-azabicyclo[4.1.0]hept-3-ene-1-carboxamide]	–	0.755
CC(O)CCNC(=O)[C@]12C[C@H]1[C@@](C)(c1cc(/C=C(\F)c3ccc(Cl)cn3)ccc1F)N=C(N)S2 (stereo partly drawn) [Example 115, (1S,5S,6S)-3-amino-5-(5-((Z)-2-(5-chloropyridin-2-yl)-2-fluorovinyl)-2-fluorophenyl)-N-(3-hydroxybutyl)-5-methyl-2-thia-4-azabicyclo[4.1.0]hept-3-ene-1-carboxamide]	57.6	–
C#Cc1cnc(/C(F)=C/c2ccc(F)c([C@@]3(C)N=C(N)S[C@@]4(C(=O)NC)C[C@H]43)c2)cn1 [Example 167, (1S,5S,6S)-3-amino-5-(5-((Z)-2-(5-ethynylpyrazin-2-yl)-2-fluorovinyl)-2-fluorophenyl)-N,5-dimethyl-2-thia-4-azabicyclo[4.1.0]hept-3-ene-1-carboxamide]	–	0.16
C[C@]1(c2cc(/C=C(\F)c3ccc(Cl)cn3)ccc2F)N=C(N)S[C@@]2(C(=O)N3CCC3)C[C@H]21 [Example 112, ((1S,5S,6S)-3-amino-5-(5-((Z)-2-(5-chloropyridin-2-yl)-2-fluorovinyl)-2-fluorophenyl)-5-methyl-2-thia-4-azabicyclo[4.1.0]hept-3-en-1-yl)(azetidin-1-yl)methanone]	97.6	–
